# According to publication PMC5994430, “Mitochondrial Delivery of Phenol Substructure Triggers Mitochondrial Depolarization and Apoptosis of Cancer Cells” (Frontiers in Pharmacology, 2018):
# How the values were obtained:
# Assay type in all cases: cell-based, Human
# [1] = system: mitochondrial ROS; assay: Mitochondrial ROS (MitoSOX Red) in BEAS-2B cells; conditions: 0.1 μM, 4 h
# Procedure: (§1) The amount of ROS in mitochondrial extracts was measured fluorimetrically by incubating cell suspension at 37°C for 10 min with 10 μM of MitoSOX Red probe (Invitrogen Life Technologies), as per manufacturer’s instructions. Results were expressed as nmoles/mg mitochondrial proteins, using a calibration curve previously set with serial dilution of H2O2.
# (§2) [t] Continuedof three experiments with similar results. (D) Confocal analysis of mitochondrial staining with MitoTracker® Green FM. Magnification: 60 × objective (0.52 numerical aperture); 10 × ocular lens. Bar: 10 μM. The micrographs are representative of three experiments with similar results. (E,F) The electron transport was measured spectrophotometrically in duplicates. ATP levels in mitochondrial extracts was measured by a chemiluminescence-based assay, in duplicates. Data are means ± SD (n = 3). For both panels: ^∗p < 0.001 vs. A549 ctrl cells; °p < 0.001 for BEAS-2B cells vs. the corresponding condition in A549 cells. (G,H) ROS amount in mitochondrial extracts and mitochondrial damage were measured fluorimetrically, in duplicates. Data are means ± SD (n = 3). […] There were no statistically significant differences between untreated (ctrl) and compound 1/compound 2-treated BEAS-2B cells for all the parameters analyzed in this figure.
# [2] = system: caspase 9; assay: Caspase 9 activity in BEAS-2B cell lysates; conditions: 0.1 μM, 24 h
# Procedure: (§3) The activity of caspase 9 and 3 was measured by incubating 20 μg cell lysates with the respective fluorogenic substrates Ac-LEHD-AMC (LEHD-AMC) or DEVD-AMC (DEVD-AMC), as reported ([Pinzón-Daza et al., 2012]). Results were expressed as nmoles AMC/mg protein.
# (§4) FIGURE 7 Effects of phenol TPP-derivatives on mitochondria-dependent apoptosis. A549 and BEAS-2B cells were incubated 24 h in fresh medium (ctrl) or in medium containing 0.1 μM of 1 or 2. (A,B) The activity of caspase 9 and 3 was measured fluorimetrically, in duplicates. Data are means ± SD (n = 3). For both panels: ^∗p < 0.001 vs. A549 ctrl cells; °p < 0.001 for BEAS-2B cells vs. the corresponding condition in A549 cells. (C,D) Cell cycle distribution, measured in duplicates. Data are means ± SD (n = 3). For both panels: ^∗p < 0.001 vs. A549 ctrl cells: °p < 0.001 for BEAS-2B cells vs. the corresponding condition in A549 cells. (E) Bright field microscope analysis of cells. Magnification: 60 × objective (0.52 numerical aperture); 10 × ocular lens. Bar: 20 μM. The micrographs are representative of three experiments with similar results.
# [3] = system: mitochondrial ROS; assay: Mitochondrial ROS (MitoSOX Red) in A549 cells; conditions: 0.1 μM, 4 h
# Procedure: as §1, §2
# [4] = system: caspase 9; assay: Caspase 9 activity in A549 cell lysates; conditions: 0.1 μM, 24 h
# Procedure: as §3, §4
# [5] = system: mitofusin 1 (MFN1) and mitofusin 2 (MFN2); assay: qRT-PCR of mitofusin mRNA in BEAS-2B cells; conditions: 0.1 μM, 4 h
# Procedure: Supplementary Figure 4 Effects of TPP-derivatives on mitofusin 1 and mitofusin 2 expression.
# A549 and BEAS-2B cells were incubated 4 h in fresh medium (ctrl) or with 0.1 µM of 1 and 2.
# Expression of mitofusin 1 (MFN1) and mitofusin 2 (MFN2) mRNA was evaluated by qRT-PCR in
# triplicates. Data are means ± SD (n=3).
# (§5) (1 picture or pasted object on this page, not shown here)
# [6] = system: electron transport between complexes I and III; assay: Electron transport chain in mitochondrial extracts of A549 cells; conditions: 0.1 μM, 4 h
# Procedure: The electron transport between complexes I and III was measured in mitochondrial extracts, immediately after extract thawing, as detailed earlier ([Jean et al., 2015]). In particular, 10 μl of not-sonicated mitochondrial samples were re-suspended in 0.59 ml buffer C (5 mM KH2PO4, 5 mM MgCl2, 5% w/v BSA) and transferred into a quartz spectrophotometer cuvette. Then 0.38 ml buffer D (25% w/v saponin, 50 mM KH2PO4, 5 mM MgCl2, 5% w/v BSA, 0.12 mM cytochrome c-oxidized form, 0.2 mM NaN3) was added for 5 min at room temperature. The reaction was started with 0.15 mM NADH and was followed for 5 min, reading the absorbance at 550 nm by a Lambda 3 spectrophotometer (PerkinElmer, Waltham, MA, United States). The results were expressed as nmoles reduced cytochrome c/min/mg mitochondrial proteins. […]
# [t] […] (E,F) The electron transport was measured spectrophotometrically in duplicates. ATP levels in mitochondrial extracts was measured by a chemiluminescence-based assay, in duplicates. […] (G,H) ROS amount in mitochondrial extracts and mitochondrial damage were measured fluorimetrically, in duplicates. […] There were no statistically significant differences between untreated (ctrl) and compound 1/compound 2-treated BEAS-2B cells for all the parameters analyzed in this figure.
# [7] = system: PGC-1α; assay: Immunoblot of nuclear PGC-1α in BEAS-2B cells; conditions: 0.1 μM, 4 h
# [8] = system: caspase 3; assay: Caspase 3 activity in A549 cell lysates; conditions: 0.1 μM, 24 h
# Procedure: as §3, §4
# [9] = system: A549 cells; assay: Extracellular LDH release; conditions: 0.1, 1 or 10 μM, 24 h
# Procedure: (§6) The extracellular release of LDH, considered an index of cell damage and necrosis, was measured spectrophotometrically, as reported ([Riganti et al., 2013b]). The extracellular medium was centrifuged at 12,000 × g for 15 min to pellet cellular debris, the cells were washed with fresh medium, detached with 0.01% trypsin/EDTA, re-suspended in 0.2 ml of 82.3 mM triethanolamine phosphate-HCl (pH 7.6), and sonicated on ice with two 10-sec bursts. LDH activity was measured in the extracellular medium and in the cell lysate: 50 μl of extracellular medium or 5 μl of cell lysate were incubated at 37°C with 5 mM NADH. The reaction was started by adding 20 mM pyruvic acid and was monitored for 6 min, measuring absorbance at 340 nm using a Synergy HT Multi-Detection Microplate Reader (Bio-Tek Instruments, Winoosky, MT, United States). The reaction kinetics were linear throughout the time of measurement. Both intracellular and extracellular enzyme activities were expressed as μmol NADH oxidized/min/dish. The results were expressed as percentage of extracellular LDH versus total (intracellular plus extracellular) LDH. Cell viability was measured by the neutral red staining method, as previously reported ([Riganti et al., 2015b]). The absorbance of untreated cells was considered as 100% viability; the results were expressed as percentage of viable cells versus untreated cells. IC50 was calculated with the CompuSyn software^1.
# (§7) Supplementary Figure 3. Cytotoxic effects of compound 15 and 16. A549 and BEAS-2B cells were grown in fresh medium (0) or incubated with 0.1, 1 or 10 µM of 15 and 16 for 24 h (panel A) or 72 h (panel B). A. The release of LDH was measured spectrophotometrically in duplicates. Data are means ± SD (n=3). B. Cell viability was measured spectrophotometrically in quadruplicates. Data are […]
# as §5
# [10] = system: BEAS-2B cells; assay: Extracellular LDH release; conditions: 0.1, 1 or 10 μM, 24 h
# Procedure: as §6, §7, §5
SMILES,mitochondrial ROS [1],activity of caspase 9 [2],mitochondrial ROS [3],activity of caspase 9 [4],expression of mitofusin 1 (MFN1) and mitofusin 2 (MFN2) [5],rate of electron transport [6],nuclear level of PGC-1α [7],activity of caspase 3 [8],release of LDH [9],release of LDH [10]
CC(=O)Oc1ccc(C[P+](c2ccccc2)(c2ccccc2)c2ccccc2)cc1.[Br-] [Compound 1],negligible modifications,remained similar to untreated cells,acutely increased,strong activation,no changes,significant decrease,unaffected,strong activation,,
O=C(Oc1ccc(C[P+](c2ccccc2)(c2ccccc2)c2ccccc2)cc1C(F)(F)F)c1ccccc1.[Br-] [Compound 2],negligible modifications,remained similar to untreated cells,acutely increased,strong activation,no changes,significant decrease,unaffected,strong activation,,
Oc1ccc(C[P+](c2ccccc2)(c2ccccc2)c2ccccc2)cc1.[Br-] [Compound 15],,,,,,,,,did not increase the release of LDH,did not increase the release of LDH
Oc1ccc(C[P+](c2ccccc2)(c2ccccc2)c2ccccc2)cc1C(F)(F)F.[Br-] [Compound 16],,,,,,,,,did not increase the release of LDH,did not increase the release of LDH
